Assay: cn = amount concentration of the nth substance listed, in mol/dm3
Conditions: 298.15 K, 101 kPa, Liquid, Open capillary

O=S(=O)([O-])[O-].O=S(=O)([O-])[O-].O=S(=O)([O-])[O-].[Fe+3].[Fe+3] [ferric sulfate] + O
Conditions	binary diffusion coefficient [m2/s]
c1 = 0.05	1.48e-09
c1 = 0.06	1.45e-09
c1 = 0.08	1.42e-09
c1 = 0.1	1.41e-09
c1 = 0.15	1.42e-09
c1 = 0.2	1.48e-09
